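Dose response: 5 concentrations. Exposure: 48 h. Format: 96-well plates. Endpoint: linear interpolation; highest concentration if not reached. GI50 marks 50% less growth. The concentration for full growth arrest is given as TGI.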
Experiments:
Assay in all cases: inhibition of tumour cell growth, NCI panel, 48 h
U251 CNS = system: U251 CNS
PC-3 prostate = system: PC-3 prostate
NCI-H460 lung = system: NCI-H460 lung
HT29 colon = system: HT29 colon
DU-145 prostate = system: DU-145 prostate
UACC-62 melanoma = system: UACC-62 melanoma
T-47D breast = system: T-47D breast
SNB-75 CNS = system: SNB-75 CNS
UACC-257 melanoma = system: UACC-257 melanoma
NCI/ADR-RES ovarian = system: NCI/ADR-RES ovarian

Structure (SMILES) | GI50 (U251 CNS) [µM] | TGI (U251 CNS) [µM] | GI50 (PC-3 prostate) [µM] | TGI (PC-3 prostate) [µM] | GI50 (NCI-H460 lung) [µM] | TGI (NCI-H460 lung) [µM] | GI50 (HT29 colon) [µM] | TGI (HT29 colon) [µM] | GI50 (DU-145 prostate) [µM] | TGI (DU-145 prostate) [µM] | GI50 (UACC-62 melanoma) [µM] | TGI (UACC-62 melanoma) [µM] | GI50 (T-47D breast) [µM] | TGI (T-47D breast) [µM] | GI50 (SNB-75 CNS) [µM] | TGI (SNB-75 CNS) [µM] | GI50 (UACC-257 melanoma) [µM] | TGI (UACC-257 melanoma) [µM] | GI50 (NCI/ADR-RES ovarian) [µM] | TGI (NCI/ADR-RES ovarian) [µM]
Cc1c(Cl)cccc1NC(=O)c1sc2nc3c(cc2c1N)CCCCC3 | 0.281 | 15.8 | 0.307 | 17.9 | 0.234 | 8 | 0.186 | 5.02 | 0.598 | 17.3 | 0.233 | > 50 | 0.22 | > 50 | – | – | – | – | – | –
N.N.O=P([O-])([O-])C1(P(=O)([O-])[O-])CCCCCN1.[Pt+2] | 43.5 | > 100 | – | – | > 100 | > 100 | > 100 | > 100 | – | – | > 100 | > 100 | – | – | 29.5 | 88.1 | > 100 | > 100 | – | –
O=C1OCC2=C1C(c1ccccc1)c1cc3c(cc1N2CCO)OCCO3 (stereo not given) | 0.279 | > 50 | 0.182 | > 50 | 0.193 | 1.96 | 0.168 | 1.61 | 0.304 | 2.73 | – | > 50 | 0.22 | > 50 | 0.121 | 0.427 | – | – | 0.377 | 1.93
CN(C)C(=O)Oc1c(-c2ccccc2)c(=O)n2c3ccccc3n3c(=O)n(C)c(=O)c1c23 | – | > 100 | – | – | – | > 100 | – | > 100 | – | – | – | > 100 | – | – | – | > 100 | – | > 100 | – | –
O=S1Nc2c(Cl)cc(Cl)c(Cl)c2S1 (stereo not given) | – | > 100 | – | – | – | > 100 | – | > 100 | – | – | – | > 100 | – | – | – | > 100 | – | > 100 | – | –
CCN(CC)CCNC(=O)c1cccc2nc3ccccc3nc12 | – | > 79.6 | – | – | – | – | – | 28.3 | – | – | – | 45.9 | – | – | – | > 100 | – | 27.7 | – | –
O=C1NCCS(=O)(=O)N2CCC[C@@H]12 | – | > 100 | – | – | – | > 100 | – | > 100 | – | – | – | > 100 | – | – | – | > 100 | – | > 100 | – | –
Oc1ccc(Cc2cc(Cl)cc(Cl)c2O)cc1Cl | – | 36.2 | – | 33.1 | – | 32.4 | – | 43.9 | – | 24.4 | – | 27.9 | – | 44.5 | – | – | – | 30.4 | – | 38.6
C/C=N\N1C(=O)c2ccccc2C1=O | – | – | – | – | – | > 100 | – | > 100 | – | – | – | > 100 | – | – | – | > 100 | – | > 100 | – | –
CCN1CCC(O)(/C=C/c2ccc(OC)cc2)C(C(=O)/C=C/c2ccc(OC)cc2)C1 (stereo not given) | – | 19.7 | – | 23.5 | – | 27.6 | – | 25.4 | – | 22.8 | – | 26.1 | – | 24.1 | – | – | – | 30.9 | – | 21.9
CCN(CC)c1ccc(/C=C/C=C2\NC(=O)NC2=O)cc1 | 3.22 | 17.9 | 3.75 | > 100 | 3.03 | 16.1 | 1.82 | 9.25 | 3.36 | 25.4 | 3.95 | > 100 | 4 | > 100 | 2.67 | 79.5 | – | – | 1.12 | 28.5
O=C(NC(=O)c1ccccc1[N+](=O)[O-])Nc1ccc(Oc2ncc(Cl)cn2)c(C(F)(F)F)c1 | – | 10.8 | – | 0.0658 | – | > 20.7 | – | 0.167 | – | > 100 | – | > 100 | – | > 89.1 | – | – | – | 41.8 | – | –
NC(=S)NN=C1CSSC1 | 3.66 | 23.1 | 3.57 | 24.5 | 1.61 | 6.49 | 2.31 | 8 | 4.12 | 16.2 | 3.21 | 17.2 | 4.31 | 29.1 | – | – | 1.93 | 17.8 | 4.11 | > 100
Cc1ccc([C@]2(C)CC[C@H](C)/C2=C\Br)c(O)c1 | 4.03 | 14.4 | 4.2 | 17.7 | 4.23 | 16.5 | 2.52 | 6.65 | 4.1 | 17.2 | 3.71 | 14.1 | 6.45 | 27.9 | – | – | 9.22 | 22 | 2.26 | 5.52
Cc1cccc2c(O)cc(=O)oc12 | – | > 100 | – | – | – | > 100 | – | > 100 | – | – | – | > 100 | – | – | – | > 100 | – | > 100 | – | –
CC1(C)CC(N(C(=O)/C=C/c2ccc([N+](=O)[O-])o2)C2CCCCC2)CC(C)(C)N1 | – | 18.1 | – | – | – | 13.9 | – | 15.4 | – | – | – | 21.6 | – | – | – | 22.3 | – | 23.1 | – | –
O=C(CC/C(CC(=O)c1ccc(Br)cc1)=N\O)Nc1ccc(Cl)c(Cl)c1 | – | > 100 | – | – | – | > 100 | – | > 100 | – | – | – | > 100 | – | – | – | > 100 | – | > 100 | – | –
Cn1c(=O)c2/c(n(C)c1=O)=N\C=c1\c(=O)n(C)c(=O)n(C)\c1=N\C=2 | – | > 100 | – | – | – | > 100 | – | > 100 | – | – | – | > 100 | – | – | – | > 100 | – | > 100 | – | –
CC(=O)[CH-]C(C)=O.CC(=O)[CH-]C(C)=O.CC[O-].CC[O-].[Ti+4] | > 100 | > 100 | – | – | > 100 | > 100 | > 100 | > 100 | – | – | > 100 | > 100 | – | – | > 100 | > 100 | > 100 | > 100 | – | –
OCCN1CCN(CC/C=C2/c3ccccc3Sc3ccc(Cl)cc32)CC1 | – | 25.6 | – | – | – | 16.3 | – | 6.9 | – | – | – | 6.78 | – | – | – | 12.3 | – | 7.16 | – | –
CC(=O)[O-].O=C([CH-]C(=O)c1ccccc1)c1ccccc1.O=C([CH-]C(=O)c1ccccc1)c1ccccc1.[Sm+3] | 5.93 | 35.3 | – | – | 2.54 | 82.6 | 6.59 | 19 | – | – | 3.73 | 19.8 | – | – | 2.12 | 6.76 | 5.66 | 24.1 | – | –

Source: PubChem BioAssay (NCI)
